Patent publication US7642239B2, “Inhibition of placenta growth factor (PLGF) mediated metastasis and/or angiogenesis” (Center for Molecular Medicine and Immunology, priority 2005, dated 2010)
Marks after values point to notes of the source that are not given here. Ends that are not written are not given here.

Tests used:
[1] = test system: MDA-MB-468; assay: Wound-healing (motility) assay, MDA-MB-468; assay type: cell-based, human; settings: for Relative activity: unit assumed; for Migrating cells: 18-24 h
Protocol: (§1) MCF-7, MDA-MB-23 1, and MDA-MB-468 breast tumor cell lines or HECs were seeded onto sterile glass coverslips in Petri dishes or six-well plates. When the cells were 70-80% confluent, the monolayers were scratched with a sterile plastic pipet tip.
(§2) Inhibitor concentrations were 50 μM PD98059 (PD98) (mitogen activated protein kinase-kinase 1 [MEK1] inhibitor), 5 nM Wortmannin (phosphatidyl inositol 3 kinase [PI3K] inhibitor), or human recombinant soluble Flt-1 (sFlt-1) (R&D Systems). […] Cells were pre-incubated with PD98 and Wortmannin for 15-30 min before addition of PlGF. Stained (Wright-Giemsa) and mounted coverslips were examined microscopically. Five to ten 100× fields were evaluated by counting the number of cells separated from the wound edges and which appeared to be migrating toward the center of the wound. Results are reported as the average number of cells migrating into the wound/100× field. In some cases data from separate experiments were combined to accommodate inclusion of various treatments in the tables.
(§3) Antibody concentration was 1 μg/ml. MEK1 inhibitor, PD98059 (PD98), 50 μM. PI3K inhibitor, Wortmannin, 5 nM. […] Values for antibody and inhibitor treatments were from separate experiments which included all relevant controls. […] UT denotes untreated controls. *P<0.01 (ANOVA) compared to UT; † P<0.02 (ANOVA) compared to PlGF only. ‡ P<0.001 (ANOVA) compared to PlGF only.

[2] = test system: PlGF-mediated angiogenesis in corneal tissues; assay: Mouse corneal micropocket angiogenesis assay; assay type: in vivo, C57B16/J mice; settings: micropellets, 100 ng PlGF with 1 μM peptide, day 5
Protocol: The ability of PlGF ligands to block PlGF-mediated angiogenesis in corneal tissues in vivo is investigated. Corneal micropockets are created using a modified von Graefe cataract knife in both eyes of male 5-6-wk-old C57B16/J mice. Micropellets comprised of a sustained release formulation of polyglucuronic acid/polylactic acid containing 100 ng of PlGF or PlGF with 1 μM BP-1, BP-2, BP-3 or BP-4 are implanted into each corneal pocket. Eyes are examined by a slit-lamp biomicroscope on day 5 after pellet implantation. Vessel length and neovascularization are measured.

[3] = test system: MDA-MB-468; assay: Matrigel cell invasion assay, MDA-MB-468; assay type: cell-based, human; settings: 48 h
Protocol: Cellular invasion was determined by addition of 5×10^4cells to growth factor-reduced Matrigel invasion chambers (BD Biosciences Discovery Labware, Bedford, Mass.) (Taylor et al., 2003b; Passaniti et al., 1992, Lab Invest 67, 519-528). Additives to the Matrigel® plugs were pre-incubated together in a total volume of 100 μl PBS at RT for 10 min, after which each additive was added to the Matrigel. Growth factors (2.0 or 0.2 nM), peptide (2 μg/ml), or antibody (1 μg/ml) were added to cells in low serum (0.1% fetal bovine serum [FBS]) medium. Baseline and chemoattractant-based invasion (10% FBS) were included. The number of invading cells was determined by counting the number of cells on the bottom of the invasion chamber membrane after staining at 100× magnification after 24 h (MDA-MB-231) or 48 h (MCF-7, MDA-MB-468). The results of three to five separate experiments are presented.

[4] = test system: MDA-MB-231 mfp tumor; assay: Orthotopic mammary fat pad (mfp) MDA-MB-231 model; assay type: in vivo, SCID mice
From the text: MDA-MB-231, grown in tissue culture, was also implanted in the mammary fat pad (mfp) of SCID mice (3×10^6 cells, 4-5 mice/group). In this model, large pulmonary metastases are less likely to develop (Richert et al., Breast Cancer Res. 7:R819-27, 2005). Peptide treatment was commenced on day 5 after implantation, when small tumors were palpable in all mice (8 treatments). Three days after the final peptide treatment, tumors were removed and weighed. Lungs were harvested and examined microscopically for metastases, as described above.

[5] = test system: MDA-MB-231; assay: Wound-healing (motility) assay, MDA-MB-231; assay type: cell-based, human; settings: for Relative activity: unit assumed; for Migrating cells: 18-24 h
Protocol: as §1, §2, §3

[6] = test system: MDA-MB-468 xenografts; assay type: in vivo, mice; settings: 200 μg/dose i.p., twice-weekly
Protocol: FIG. 5. Treatment of mice bearing MDA-MB-468 xenografts with peptides BP1 or BP3. Mice were treated every 3-4 days with 200 ug BP as described in Methods. Tumor volume was measured 2×/week. *P<0.05 at days 10, 14, 17 and 24 (change in tumor volume (ANOVA)). FIG. 5A—tumors treated with binding peptide 1. FIG. 5B—tumors treated with binding peptide 3.
Mice bearing MDA-MB-468 xenografts (average tumor volume: 0.19 cm^3) were treated with i.p. injections of individual peptides (200 μg/dose) (FIG. 5). After 4 weeks of twice-weekly treatment, tumor growth was inhibited by 49% and 58% in mice treated with BP1 (FIG. 5A) or BP3 (FIG. 5B), respectively. The effect of BP3 on tumor growth was apparent after 2 weeks of treatment (FIG. 5B), whereas the inhibitory effect of BP1 was evident after one week (FIG. 5A). The average changes in individual tumor volumes during treatment with BP1 were significant (P<0.05) at days 10, 14, 17 and 24 (FIG. 5A). Treatment with BP2 was ineffective; tumors continued to grow at almost the same rate as the mock-treated controls (results not shown). BP4 treatment produced a 20% inhibition of tumor growth (results not shown).

[7] = target: T1, PlGF (Homo sapiens, UniProt P49763); assay: Free peptide binding ELISA (FLAG epitope probe), PlGF-coated wells; settings: peptide with C-terminal FLAG epitope
T1 construct: purchased R&D Systems
T1 sequence (P49763 19-170 isoform P49763-3 limits assumed): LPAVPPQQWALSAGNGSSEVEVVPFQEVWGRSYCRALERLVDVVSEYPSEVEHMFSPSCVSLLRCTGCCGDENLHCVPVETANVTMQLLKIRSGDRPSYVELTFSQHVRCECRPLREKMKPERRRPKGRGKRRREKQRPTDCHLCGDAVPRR
Protocol: Competition assays were done with 2.5 or 25 U/ml heparin (Sigma, St. Louis, Mo.). BP1, 3, 4, and a scrambled version of BP3 (scrBP3) were synthesized with a linker followed by the FLAG epitope ([…] SEQ ID NO:5) at the C-terminus. Thirty minutes after addition of the first reagent, the second reagent was added, followed by another 30 minute incubation. Peptide binding was assessed by probing for the FLAG epitope (Prickett et al., Biotechniques 7:580-9, 1989; Castrucci et al., J. Virol. 66:4647-53, 1992). Absorbance was read at 490 nm.

[8] = PlGF 2 nM ± test agent, relative to PlGF-only value
[9] = VEGF 2 nM ± test agent, relative to VEGF-only value

Which Relative activity [1, 8] does the source give for SHRYRLAIQLHASDSSSSCV [BP1] here?
Its Relative activity is 97%.

What about the Relative activity [1, 9] of the same sequence?
Its Relative activity is 113%.

What about the Migrating cells ([1]; growth factor PlGF 2 nM ± test agent (Flt-1 2 nM, peptide 2 μM, antibody 1 μg/ml)) of the same sequence?
The Migrating cells was 14.3 ± 8.1 cells/100× field.

And the Migrating cells ([1]; growth factor VEGF 2 nM ± test agent)?
The Migrating cells was 15.8 ± 9.5 cells/100× field.

And the “effect on PlGF mediated angiogenesis in corneal tissues” value [2]?
The value was “inhibits”.

What about the “Average fold-change in the number of cells on the membrane compared to untreated controls” value ([3]; PlGF 0.2 nM ± peptide 2 μg/ml) of the same sequence?
The value was 0.6 ± 0.4 fold.

What about the “Average fold-change in the number of cells on the membrane compared to untreated controls” value ([3]; peptide 2 μg/ml alone) of the same sequence?
The value was 1.2 ± 0.3 fold.

And the tumor weight ([4]; 8 peptide treatments, mock-treated 0.423±0.089)?
The tumor weight was 0.345 ± 0.095 g.

And the reduction in metastases ([4]; lung micrometastases)?
The reduction in metastases was 82%.

What about the “micrometastasis counts per mouse” value ([4]; lung, mock-treated 3.4±1.9) of the same sequence?
Its value is 0.6±0.5.

What about the “decrease in tumor weight” value ([4]; vs mock-treated, did not reach statistical significance) of the same sequence?
The value was 23%.

What about the Relative activity [5, 8] of the same sequence?
Its Relative activity is 32%.

And the Relative activity [5, 9]?
Its Relative activity is 132%.

And the “effect on PlGF-stimulated motility (in words)” value ([5]; antibody 1 μg/ml, peptide 2 μM)?
The value was “inhibited”.

What about the Migrating cells ([5]; growth factor PlGF 2 nM ± test agent (Flt-1 2 nM, peptide 2 μM, antibody 1 μg/ml, PD98059 50 μM, Wortmannin 5 nM)) of the same sequence?
The Migrating cells was 13.6 ± 6.1† cells/100× field.

And the Migrating cells ([5]; growth factor VEGF 2 nM ± test agent (peptide 2 μM, antibody 1 μg/ml))?
Its Migrating cells is 14.7 ± 2.1 cells/100× field.

What about the “duration of treatment after which effect on tumor growth was apparent” value [6] of the same sequence?
Its value is “one week”.

And the “binding to PlGF (A490)” value [7]?
The value was 0.100±0.058.
